Results reported in patent publication US20080261891A1, “COMPOSITIONS AND METHODS FOR USING SYRINGOPEPTIN 25A AND RHAMNOLIPIDS” (Utah State University, priority 2007, published 2008).
In brackets after ≈: the same amount, converted by molar mass. Several values for one entry are separate records, joined by “and”; a condition that tells them apart may be missing. Identical values can stand only once. Entries after “also recorded” stand apart in the source; their conditions may differ. Where a SMILES comes first, the peptide text is derived from it. Bridges are numbered along the chain shown (N, C = ends). [ ]: non-standard residue; d: D form. The star is where a group is joined. ξ: configuration not given here. Decanoyl(3ξ-OH) = CCCCCCCC(O)CC(=O)*; Dab = NCC[CH](N)C(=O)O; Dhb = C/C=C(\N)C(=O)O

What was measured:
Assay type in all cases: cell-based
Mycobacterium smegmatis = tested on: Mycobacterium smegmatis
[1] = tested on: Listeria monocytogenes EGDe; experiment: Cell growth (cell density, OD600) during treatment over 120 min
Protocol: FIG. 6B includes a graph that illustrates the amount of cell growth in response to being treated with SP 25A, RLs and saline (control) over a period of 120 min. […] The lack of positive correlation between membrane permeabilization (FIG. 6A) and inhibition of cell growth (FIG. 6B) of SP 25A inferred that the pore forming model alone was not be responsible for all of the antimicrobial properties of SP 25A.
Listeria monocytogenes EGDe was thawed and subcultured twice at 37° C. in brain heart infusion broth (BHI) (DIFCO, Franklin Lanes, N.J.). An overnight culture was diluted 10 fold in sterile medium and grown for 4 h to an OD600 of 1.7, which corresponded to ˜10^9 cfu/mL. The cell preparation was exposed to either 3 μg/mL SP 25A or 6 μg/mL RLs. Treatment with both RLs and SP 25A caused membrane permeabilization (FIG. 6A), but each reduced cell growth (FIG. 6B) of L. monocytogenes by different amounts. […]
(§1) Total RNA was extracted from a 1.8 mL culture immediately before treating the cells with SP 25A and RLs (T0), after 30 min (T30), and at 120 min (T120) of exposure at 37° C. Simultaneously, the cell density was measured at OD600. Membrane permeabilization was determined by measuring the PI uptake. […] Each well contained five probes for each open reading frame in the entire genome.

[2] = tested on: Listeria monocytogenes EGDe; experiment: Membrane permeabilization by PI uptake during treatment
Protocol: Membrane permeabilization was determined through following the change in fluorescence of a dye, propidium iodide (“PI”). PI is unable to pass through the cell membrane unless the membrane has been physically compromised. Once inside the cell, the intercalation of the PI with the DNA of the cell causes the fluorescent properties of the dye to change. This change in fluorescence can be measured. Therefore, an uptake of PI indicates an increase in membrane permeabilization.
FIGS. 6A includes a graph that illustrates the amount of membrane permeabilization in response to SP 25A and RLs. Membrane permeabilization was determined by the increase in fluorescence (RFU) with PI uptake during treatment of L. monocytogenes with SP 25A and RLs over a period of 120 min.
Listeria monocytogenes EGDe was thawed and subcultured twice at 37° C. in brain heart infusion broth (BHI) (DIFCO, Franklin Lanes, N.J.). […]
as §1

Salmonella enteridis = experiment: MIC, microbroth dilution method; settings: 48 h
Protocol: (§2) The MIC of the compounds for the organisms was determined by the microbroth dilution method, described hereafter. The microorganisms were prepared as described above and resuspended in their optimal growth media (Table 1) to ˜10^5 CFU/mL containing SP 25A at 2, 3, 4, 5, 6, 7, 8, 16, 32 and 50 μg/mL in a total volume of 550 μL. RL concentrations of 2, 3, 4, 5, 6, 7, 8, 16, 32 and 60 μg/mL in a total volume of 550 μL were tested in a 48-well plate (Corning, N.Y.). The plates were incubated at optimal growth conditions for the respective organism and monitored for an increase in OD600 after 48 h by a Perkin-Elmer (HTS 7000) plate reader (Downers Grove, Ill.). […] Negative controls (no inhibition of growth) were included using saline in the assay for each compound. The lowest concentration at which there was no increase in OD over 48 h was reported as the MIC. Each MIC was determined in replicate with three separate tests per replication. The results of the three tests were averaged for each replicate.

Bacillus cereus = experiment: MIC, microbroth dilution method; settings: 48 h
Protocol: as §2

Lactobacillus plantarum = experiment: MIC, microbroth dilution method; settings: 48 h
Protocol: as §2

Clostridium sporogenes = experiment: MIC, microbroth dilution method; settings: 48 h
Protocol: as §2

Citrobacter fruendii = experiment: MIC, microbroth dilution method; settings: 48 h
Protocol: as §2

Bacillus megaterium = experiment: MIC, microbroth dilution method; settings: 48 h
Protocol: as §2

Listeria monocytogenes = experiment: MIC, microbroth dilution method; settings: 48 h
Protocol: as §2

Micrococcus luteus = experiment: MIC, microbroth dilution method; settings: 48 h
Protocol: as §2

Eschereschia coli K12 = experiment: MIC, microbroth dilution method; settings: 48 h
Protocol: as §2

Enterobacter aerogenes = experiment: MIC, microbroth dilution method; settings: 48 h
Protocol: as §2

[3] = tested on: Streptococcus agalacticae; experiment: MIC, microbroth dilution method; settings: 48 h
Protocol: as §2

[4] = tested on: Klebsiella pneumoniae subsp. Pneumoniae; experiment: MIC, microbroth dilution method; settings: 48 h
Protocol: as §2

[5] = tested on: Lactococcus lactis subsp. Lactis; experiment: MIC, microbroth dilution method; settings: 48 h
Protocol: as §2

[6] = tested on: Lactobacillus acidophilus; experiment: MIC, microbroth dilution method; settings: 48 h
Protocol: as §2

Streptococcus suis = experiment: MIC, microbroth dilution method; settings: 48 h
Protocol: as §2

Salmonella typhimurium = experiment: MIC, microbroth dilution method; settings: 48 h
Protocol: as §2

Listeria innocua = experiment: MIC, microbroth dilution method; settings: 48 h
Protocol: as §2

Erwinia herbicola = experiment: MIC, microbroth dilution method; settings: 48 h
Protocol: as §2

Flavobacterium devorans = experiment: MIC, microbroth dilution method; settings: 48 h
Protocol: as §2

Aeromonas caviae = experiment: MIC, microbroth dilution method; settings: 48 h
Protocol: as §2

Streptococcus mutans = experiment: MIC, microbroth dilution method; settings: 48 h
Protocol: as §2

Bacillus subtilis = experiment: MIC, microbroth dilution method; settings: 48 h
Protocol: as §2

SMILES: C/C=C(\NC(=O)C(C)NC(=O)C(C)NC(=O)C(CC(C)C)NC(=O)C(NC(=O)C(C)NC(=O)C(C)NC(=O)C(NC(=O)C1CCCN1C(=O)/C(=C/C)NC(=O)CC(O)CCCCCCC)C(C)C)C(C)C)C(=O)NC(C(=O)N/C(=C\C)C(=O)NC(C)C(=O)NC(C(=O)NC(C)C(=O)NC(C)C(=O)N/C(=C\C)C(=O)NC1C(=O)NC(CO)C(=O)NC(C)C(=O)NC(C(C)C)C(=O)NC(C)C(=O)NC(CCN)C(=O)NC(CCN)C(=O)NC(Cc2ccc(O)cc2)C(=O)OC1C)C(C)C)C(C)C (stereo not drawn) [SP 25A, syringopeptin 25A] ({Decanoyl(3ξ-OH)}-[Dhb]PVAAVLAA[Dhb]V[Dhb]AVAA[Dhb]TSAVA[Dab][Dab]Y; ester 18-C; configuration not given here)
- MIC (Mycobacterium smegmatis): 4 µg/mL (≈ 1.67 µM)
- growth of culture (cell density) ([1]; 3 μg/mL SP 25A, during 120 min, control culture grew by 15.3%): did not grow
- inhibition of cell growth ([1]; in comparison to the saline control, 120 min): completely inhibited cell growth; also recorded: complete inhibition of cell growth
- increase in membrane permeabilization (PI uptake) ([2]; L. monocytogenes EGDe, 3 μg/mL SP 25A, after 30 min): ~2% and 2.6%
- PI uptake (membrane permeabilization) ([2]; L. monocytogenes, sub-MIC doses, over 120 min): did not
- MIC (Salmonella enteridis): >50 µg/mL
- MIC (Bacillus cereus): 4 µg/mL (≈ 1.67 µM)
- MIC (Lactobacillus plantarum): 16 µg/mL (≈ 6.67 µM)
- MIC (Clostridium sporogenes): 4 µg/mL (≈ 1.67 µM)
- MIC (Citrobacter fruendii): >50 µg/mL
- MIC (Bacillus megaterium): 3 µg/mL (≈ 1.25 µM)
- MIC (Listeria monocytogenes): 3 µg/mL (≈ 1.25 µM)
- MIC (Micrococcus luteus): 4 µg/mL (≈ 1.67 µM)
- MIC (Eschereschia coli K12): >50 µg/mL
- MIC (Enterobacter aerogenes): >50 µg/mL
- MIC [3]: 8 µg/mL (≈ 3.33 µM)
- MIC [4]: >50 µg/mL
- MIC [5]: 4 µg/mL (≈ 1.67 µM)
- MIC [6]: 8 µg/mL (≈ 3.33 µM)
- MIC (Streptococcus suis): 4 µg/mL (≈ 1.67 µM)
- MIC (Salmonella typhimurium): >50 µg/mL
- MIC (Listeria innocua): 3 µg/mL (≈ 1.25 µM)
- MIC (Erwinia herbicola): >50 µg/mL
- MIC (Flavobacterium devorans): 4 µg/mL (≈ 1.67 µM)
- MIC (Aeromonas caviae): >50 µg/mL
- MIC (Streptococcus mutans): 4 µg/mL (≈ 1.67 µM)
- MIC (Bacillus subtilis): 4 µg/mL (≈ 1.67 µM)
